# Columns and labels:
# [1] = tested on: S. aureus MW2 (MRSA) exponential and persister cells; assay: S. aureus persister cell and time-kill assays (MW2); type: cell-based, Staphylococcus aureus; conditions: within 120 minutes; ciprofloxacin 10 μg/mL, bithionol 10 μg/mL
# Method: (§1) 305 Minimal inhibitory concentration (MIC) assay
# (§2) We made serial dilutions of 10×
# (§3) We determined the MIC using OD600
# (§4) Accordingly, we added 150 mM NaCl,
# (§5) 319 established protocol (5).
# (§6) 323 aureus VRS1) in PBS. To assess the killing kinetics of CIT-8 in persister cells, we added 1 ml of
# (§7) 324 cell suspension to the wells of a 2-ml deep-well assay block (Cat no. 3960, Corning, NY, USA)
# (§8) We also included ciprofloxacin (at 10 μg/ml) for S.
# (§9) 326 aureus MW2 and linezolid (100 μg/ml) for S. aureus VRS1 as antibiotic controls. Additionally,
# (§10) 327 we included bithionol (at 10 μg/ml) as a positive control, known for its ability to kill stationary
# (§11) 328 phase persister cells (6). We incubated the plates at 37°C, with shaking at 225 rpm. At specific
# (§12) 329 times (0, 15, 30, 60, and 120 min), we collected 10 μl samples, diluted them serially, and then
# (§13) 330 plated them on tryptic soy agar (TSA) (BD Difco, NJ, USA) plates. We incubated the TSA plates
# (§14) 331 for 18 hours at 37°C for colony counting. We performed these experiments in duplicate. As a
# (§15) 332 comparison, we prepared the exponential cells of S. aureus MW2 and VRS1 in PBS and analyzed
# (§16) 333 their killing kinetics in the same manner as described for persister cells.
# [2] = tested on: S. aureus VRS1 (VRSA) exponential and persister cells; assay: S. aureus persister cell and time-kill assays (VRS1); type: cell-based, Staphylococcus aureus; conditions: within 120 minutes; bithionol 10 μg/mL, linezolid 100 μg/mL
# Method: as §1, §2, §3, §4, §5, §6, §7, §8, §9, §10, §11, §12, §13, §14, §15, §16
# [3] = HPLC retention time on C18 reverse-phase column; type: physicochemical
# Source text: Table 1 Physical parameters and minimal inhibitory concentrations of citropin 1.1-derived peptides against S. aureus MW2 | column: rT^D (min)
# S. aureus MW2 = assay: Minimal inhibitory concentration (MIC) assay, broth microdilution; type: cell-based, Staphylococcus aureus; conditions: S. aureus MW2; broth microdilution, TSB, 1 × 10^6 CFU/ml, 37°C 18 h, OD600, duplicate
# Method: 300 Synthesis of peptides
# 302 Piscataway, NJ, USA).
# as §1, §2, §3, §4, §5
# HepG2 cells = assay: Mammalian cell cytotoxicity assay
# Method: 410 the HepG2 cells at 37°C in 5% CO2 in Dulbecco’s Modified Eagle Medium (DMEM) (Gibco, MA,
# We harvested and resuspended cells in fresh DMEM
# [4] = tested on: S. aureus MW2 skin infection; assay: Skin-abraded murine infection, established infection model, bacterial load; type: in vivo, mice; parameters: Bacterial load from skin specimens, established infection model / bacterial load in skin, Sup. Fig. 12: unit not given here; conditions: for Bacterial load from skin specimens, established infection model: 2% ointment 24 hours after infection; for bacterial load in skin, Sup. Fig. 12: 2%, mice
# Method: (§17) 599 In vivo murine skin infection and treatment
# (§18) 600 We used a topical skin-abraded murine infection model with minor modifications to test
# (§19) 601 the in vivo efficacy of the CIT-8 peptide (25). We performed all mouse studies following the
# (§20) 602 protocol approved by the Institutional Animal Care and Use Committee. In brief, we anesthetized
# (§21) 603 female C57BL/6 mice (6 weeks) (Jackson Laboratory, Bar Harbor, ME, USA) with ketamine-
# (§22) 604 xylazine (90 mg/kg ketamine and 10 mg/kg xylazine) via intraperitoneal injection. We shaved the
# (§23) 605 dorsal side of the mice in the middle of the back (area=2 cm2). To disrupt skin integrity, we tape-
# (§24) 606 stripped with Tensoplast® seven times in succession, replacing the tape each time, resulting in
# (§25) 607 visibly damaged skin. We infected the damaged skin area with 1 × 10^7 CFU of S. aureus MW2
# (§26) 608 (exponential phase bacteria in PBS) with an inoculum of 50 µl using a pipette tip. Ten minutes
# (§27) 609 (prophylactic model) and 24 h (established model) after bacterial inoculation, we applied 30 mg
# (§28) 610 of 1 and 2% (w/w) CIT-8 ointment in a white petroleum jelly base (Cat no. 19-090-843, Fisher
# (§29) 611 Scientific, MA, USA) to the skin. We also included animal groups treated with only petroleum
# (§30) 612 jelly or with 2% commercial mupirocin ointment as negative and positive controls, respectively.
# (§31) 613 For pain management, we used the analgesic buprenorphine SR (0.05 mg/kg).
# (§32) 614 After 24 h of treatment, we euthanized the animals, separated the skin from the underlying
# (§33) 615 fascia and muscle tissue, and excised about 2 cm2 of skin from the infected area. We ground the
# (§34) 616 skin in 1ml of PBS buffer (Gibco, MD, USA). We serially diluted 100 µl of the solution in PBS
# (§35) 617 and plated it on Remel™ TSA plates (Fisher, MA, USA) to estimate viable colony counts after 18
# (§36) 618 h of incubation at 37 °C. Further, we added 10 µl of EDTA-Free, protease inhibitor cocktail Set III
# (§37) 619 (Millipore Sigma, MA, USA) to 500 µl of the ground skin PBS solution for cytokine estimation.
# (§38) 620 The Cytokine Core, LLC (Indianapolis, IN, USA) performed the cytokine concentration analysis
# [5] = tested on: S. aureus MW2 skin infection; assay: Skin-abraded murine infection, prophylactic (acute) model, bacterial load; type: in vivo, mice; conditions: for Bacterial load from skin specimens, prophylactic model: 2% ointment 10 minutes after infection
# Method: as §17, §18, §19, §20, §21, §22, §23, §24, §25, §26, §27, §28, §29, §30, §31, §32, §33, §34, §35, §36, §37, §38
compound,measurement,setting,value
Oc1c(Cl)cc(Cl)cc1Sc1cc(Cl)cc(Cl)c1O [bithionol],Reduction of MRSA persister cells,[1],1.5 logs
same,Reduction of VRSA persister cells,[2],1.5 logs
same,Reduction of exponentially growing VRSA,[2],1.0 logs
H-GLFDVIKKLLSVI-NH2 [CIT-5],rT (HPLC retention time),[3],22.300 min
same,MIC SA,S. aureus MW2,> 32 µg/mL
H-GLFSVIKKLLSVI-NH2 [CIT-6],rT (HPLC retention time),[3],23.302 min
same,MIC SA,S. aureus MW2,2 µg/mL
O=C(O)c1cn(C2CC2)c2cc(N3CCNCC3)c(F)cc2c1=O [Ciprofloxacin],Reduction of MRSA persister cells,[1],did not have any effect
H-GLFKVIKKVASVI-NH2 [CIT-3],rT (HPLC retention time),[3],17.400 min
same,MIC SA,S. aureus MW2,> 32 µg/mL
H-GLFSVIKKVASVI-NH2 [CIT-2],rT (HPLC retention time),[3],15.711 min
same,MIC SA,S. aureus MW2,> 32 µg/mL
H-GLFKVIKKVAKVI-NH2 [CIT-4],rT (HPLC retention time),[3],17.776 min
same,MIC SA,S. aureus MW2,> 32 µg/mL
H-GLFDVIKKVASVI-NH2 [CIT-1],rT (HPLC retention time),[3],17.570 min
same,MIC SA,S. aureus MW2,> 32 µg/mL
"CNC(C)C1CCC(N)C(OC2C(N)CC(N)C(OC3OCC(C)(O)C(NC)C3O)C2O)O1 (centres unmarked) [gentamicin, reference compound]","HepG2 cell viability, Sup. Fig. 4B","HepG2 cells; 4 μg/ml, replicate 1",100.314
same,"HepG2 cell viability, Sup. Fig. 4B","HepG2 cells; 4 μg/ml, replicate 2",105.383
same,"HepG2 cell viability, Sup. Fig. 4B","HepG2 cells; 4 μg/ml, replicate 3",105.587
same,"HepG2 cell viability, Sup. Fig. 4B","HepG2 cells; 8 μg/ml, replicate 1",101.846
same,"HepG2 cell viability, Sup. Fig. 4B","HepG2 cells; 8 μg/ml, replicate 2",103.015
same,"HepG2 cell viability, Sup. Fig. 4B","HepG2 cells; 8 μg/ml, replicate 3",101.846
same,"HepG2 cell viability, Sup. Fig. 4B","HepG2 cells; 16 μg/ml, replicate 1",102.511
same,"HepG2 cell viability, Sup. Fig. 4B","HepG2 cells; 16 μg/ml, replicate 2",103.671
same,"HepG2 cell viability, Sup. Fig. 4B","HepG2 cells; 16 μg/ml, replicate 3",100.107
same,"HepG2 cell viability, Sup. Fig. 4B","HepG2 cells; 32 μg/ml, replicate 1",102.999
same,"HepG2 cell viability, Sup. Fig. 4B","HepG2 cells; 32 μg/ml, replicate 2",106.118
same,"HepG2 cell viability, Sup. Fig. 4B","HepG2 cells; 32 μg/ml, replicate 3",103.265
same,"HepG2 cell viability, Sup. Fig. 4B","HepG2 cells; 64 μg/ml, replicate 1",103.75
same,"HepG2 cell viability, Sup. Fig. 4B","HepG2 cells; 64 μg/ml, replicate 2",104.801
same,"HepG2 cell viability, Sup. Fig. 4B","HepG2 cells; 64 μg/ml, replicate 3",97.7499
same,"HepG2 cell viability, Sup. Fig. 4B","HepG2 cells; 128 μg/ml, replicate 1",104.41
same,"HepG2 cell viability, Sup. Fig. 4B","HepG2 cells; 128 μg/ml, replicate 2",112.88
same,"HepG2 cell viability, Sup. Fig. 4B","HepG2 cells; 128 μg/ml, replicate 3",101.795
CC(=O)NC[C@H]1CN(c2ccc(N3CCOCC3)c(F)c2)C(=O)O1 [linezolid],Reduction of VRSA persister cells,[2],no impact
same,Reduction of exponentially growing VRSA,[2],0.7 logs
"C/C(=C\C(=O)OCCCCCCCCC(=O)O)C[C@@H]1OC[C@H](C[C@@H]2O[C@H]2[C@@H](C)[C@H](C)O)[C@@H](O)[C@H]1O [mupirocin, reference compound]","Bacterial load from skin specimens, established infection model",[4]; animal 1,5546493
same,"Bacterial load from skin specimens, established infection model",[4]; animal 2,5663717
same,"Bacterial load from skin specimens, established infection model",[4]; animal 3,38314176
same,"Bacterial load from skin specimens, established infection model",[4]; animal 4,4793289
same,"Bacterial load from skin specimens, established infection model",[4]; animal 5,8342990
same,"Bacterial load from skin specimens, established infection model",[4]; animal 6,7083333
same,"Bacterial load from skin specimens, established infection model",[4]; animal 7,21857924
same,"Bacterial load from skin specimens, established infection model",[4]; animal 8,14962594
same,"Reduction of S. aureus MW2 vs vehicle, established infection model","[4]; 2% w/w ointment, single dose 24 hours after inoculation, n = 8",2.4 log
same,"bacterial load in skin, Sup. Fig. 12",[4]; animal 1,84745.8
same,"bacterial load in skin, Sup. Fig. 12",[4]; animal 2,264317
same,"bacterial load in skin, Sup. Fig. 12",[4]; animal 3,520833
same,"bacterial load in skin, Sup. Fig. 12",[4]; animal 4,633914
same,"bacterial load in skin, Sup. Fig. 12",[4]; animal 5,864198
same,"bacterial load in skin, Sup. Fig. 12",[4]; animal 6,285714
same,"bacterial load in skin, Sup. Fig. 12",[4]; animal 7,1465201
same,"bacterial load in skin, Sup. Fig. 12",[4]; animal 8,754717
same,"Bacterial load from skin specimens, prophylactic model",[5]; animal 1,500000
same,"Bacterial load from skin specimens, prophylactic model",[5]; animal 2,380952
same,"Bacterial load from skin specimens, prophylactic model",[5]; animal 3,320000
same,"Bacterial load from skin specimens, prophylactic model",[5]; animal 4,47058.8
same,"Bacterial load from skin specimens, prophylactic model",[5]; animal 5,200000
same,"Bacterial load from skin specimens, prophylactic model",[5]; animal 6,34782.6
same,"Bacterial load from skin specimens, prophylactic model",[5]; animal 7,176000
same,"Bacterial load from skin specimens, prophylactic model",[5]; animal 8,533333
same,"Bacterial load from skin specimens, prophylactic model",[5]; animal 9,769231
same,"Bacterial load from skin specimens, prophylactic model",[5]; animal 10,1538462
same,"Bacterial load from skin specimens, prophylactic model",[5]; animal 11,289655
same,"Bacterial load from skin specimens, prophylactic model",[5]; animal 12,252632
same,"Reduction of S. aureus MW2 burden vs vehicle, prophylactic model","[5]; 2% w/w ointment, single treatment 10 minutes after inoculation, n = 12",2.8 log
H-GLFKVIKKLLSVI-NH2 [CIT-7],rT (HPLC retention time),[3],19.956 min
same,MIC SA,S. aureus MW2,4 µg/mL
